Here are results for 14 molecules from patent US8394786B2, “Quinazoline derivatives” (Janssen Pharmaceutica N.V., priority 2003, dated 2013).

For data set [1], the target named is T1, EGFR (Homo sapiens, UniProt P00533). In words: In vitro inhibition of EGFR using a scintillant proximity assay (C1). Format: biochemical. Also noted: 0.5 μg EGFR-kinase domain/well. The note with it: EGFR-kinase domain, poly(GT)biotin, 5.0 μM unlabeled ATP, 30° C. 60 minutes; read-out: EGFR SPA (C1): IC50. The procedure:
In the present EGFR SPA kinase reaction assay, a kinase substrate consisting of biotinylated poly(L-glutamic acid-L-tyrosine) (poly(GT)biotin), is incubated with the aforementioned protein in the presence of (^33P) radiolabeled ATP. (^33P) phosphorylation of the substrate is subsequently measured as light energy emitted using streptavidin-coated SPA beads (Amersham Pharmacia Biotech) by trapping and quantifying the binding of the biotin tagged and radiolabeled substrate.
The EGFR SPA kinase reaction is performed at 30° C. for 60 minutes in a 96-well microtiter plate. For each of the tested compounds a full dose response 1·10^−6M to 1·10^−10M has been performed. IRESSA® and Tarceva™ (erlotinib) were used as reference compounds. The 100 μl reaction volume contains 54.5 mM TrisHCl pH 8.0, 10 mM MgCl2, 100 μM Na3VO4, 5.0 μM unlabeled ATP, 1 mM DTT, 0.009% BSA, 0.8 μCi ^33P-ATP, 0.35 μg/well poly(GT)biotin and 0.5 μg EGFR-kinase domain/well. The reaction is stopped by adding to each well 100 μl of the streptavidin beads (10 mg/ml in PBS+100 mM EDTA+100 μM ATP). The plates are than shaked at 300 rpm for 30 min to allow binding of the biotinylated substrate to the streptavidin coated beads. Than the beads are allowed to settle at the bottom of the plate for 30 minutes. The microtiterplates are centrifuges at 800 rpm for 10 minutes and the amount of phosphorylated (^33P) Poly(GT)biotin is determined by counting (30 sec/well) in a microtiterplate scintillation counter.
Target sequence in this assay (P00533 712-979 limits assumed): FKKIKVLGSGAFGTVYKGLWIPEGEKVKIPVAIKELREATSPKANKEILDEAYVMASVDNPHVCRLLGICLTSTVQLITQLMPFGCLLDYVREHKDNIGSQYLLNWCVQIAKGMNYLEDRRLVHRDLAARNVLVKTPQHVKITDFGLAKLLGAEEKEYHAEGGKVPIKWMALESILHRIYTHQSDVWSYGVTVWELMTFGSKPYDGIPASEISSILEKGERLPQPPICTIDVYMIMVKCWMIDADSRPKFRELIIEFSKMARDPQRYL

The target of data set [2] is T1, EGFR. In words: In vitro inhibition of EGFR, Flash Plate or glass-fiber filter technology (C2). Format: biochemical. The arrangement: 0.5 μg EGFR-kinase domain/well. The note with it: EGFR-kinase domain, 5.0 μM unlabeled ATP, read-out: Kinase activity.(C2): pIC50 (converted). Summed up:
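Two radiometric formats were used, each with 5.0 μM unlabeled ATP, [33P]ATP, 0.5 μg EGFR kinase domain and compounds from 1·10^−10 to 1·10^−6 M. Glass-fiber filter: 25° C for 10 min, pH 7.5, Mn2+/Mg2+, acid-stopped, phosphorimager read. Streptavidin Flash Plate: biotinylated poly(GT), pH 8.0, 30° C for 60 min.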
Target sequence in this assay (P00533 712-979 limits assumed): as above

In a further data set the test system is SKOV3 cells. Put plainly: Serum starved proliferation assay on the ovarian carcinoma SKOV3 cells (C3). Format: cell-based. The note with it: Homo sapiens, SK-OV-3, 72 h, EGF stimulated (100 ng/ml, 72 hours, serum free) or 72 hours with compounds; MTT cell viability assay; read-out: SKOV3 cell (C3): pIC50 (converted). In a few lines:
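MTT viability read-out in SKOV3 cells after a 24 h pre-incubation in 10% FCS, in one of two formats. EGF-stimulated version: serum-free compound exposure followed by 100 ng/ml EGF (final) for 72 h at 37 °C, 5% CO2. Otherwise, compound alone for 72 h.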

The target in data set [3] is T1, EGFR. In words: ELISA assay of EGFR tyrosine kinase activity (C4). Format: biochemical. The note with it: poly(Glu, Tyr) coated plate, 5 μM ATP, room temperature 10 min. The procedure:
The EGFR ELISA is generally described by Yang, E. B. et al., 2001, Biochimica et Biophysica Acta, 1550; 144.
For the determination of EGFR tyrosine kinase activity, 100 μl of 0.4 μg/ml poly(Glu, Tyr) in PBS was coated per well on a 96-well microplate at 37° C. overnight. […] After washing three times with PBS the plates were either used immediately or stored at 4° C. Prior to the determination of the EGFR tyrosine kinase activity, the coated plates were washed two times with PBS. Next, to each well 88 μl of an ATP dilution (50 mM Tris HCl pH 8.0, 10 mM MgCl2, 100 μM Na3VO4, 1 mM DTT, 5 μM ATP) and 2 μl with various concentrations of the compounds to be tested, were added. The EGFR tyrosine kinase-catalysed reaction was started by the addition of 10 μl of diluted EGFR (dilution→0.05 μg per well enzyme diluted in 50 mM TrisHCl pH 8.0+0.1% BSA). After incubation at room temperature for 10 min, the reaction was stopped by washing five times with PBS with 0.1% Tween 20. Subsequently […] of recombinant anti-phosphotyrosine horseradish peroxidase conjugate (1:2500) in BSA (10 mg/ml in PBS) was added. After incubation at room temperature for 1 h, the microplate was washed five times with PBS/Tween 20. After the microplate was incubated with 100 μl of TMB-ELISA (1-step Ultra TMB-ELISA, Pierce) until colour development, 100 μl of 0.5 M H2SO4 was added to stop the reaction, and it was read in a microplate reader at 450-655 nm.
Target sequence in this assay (P00533 25-1210): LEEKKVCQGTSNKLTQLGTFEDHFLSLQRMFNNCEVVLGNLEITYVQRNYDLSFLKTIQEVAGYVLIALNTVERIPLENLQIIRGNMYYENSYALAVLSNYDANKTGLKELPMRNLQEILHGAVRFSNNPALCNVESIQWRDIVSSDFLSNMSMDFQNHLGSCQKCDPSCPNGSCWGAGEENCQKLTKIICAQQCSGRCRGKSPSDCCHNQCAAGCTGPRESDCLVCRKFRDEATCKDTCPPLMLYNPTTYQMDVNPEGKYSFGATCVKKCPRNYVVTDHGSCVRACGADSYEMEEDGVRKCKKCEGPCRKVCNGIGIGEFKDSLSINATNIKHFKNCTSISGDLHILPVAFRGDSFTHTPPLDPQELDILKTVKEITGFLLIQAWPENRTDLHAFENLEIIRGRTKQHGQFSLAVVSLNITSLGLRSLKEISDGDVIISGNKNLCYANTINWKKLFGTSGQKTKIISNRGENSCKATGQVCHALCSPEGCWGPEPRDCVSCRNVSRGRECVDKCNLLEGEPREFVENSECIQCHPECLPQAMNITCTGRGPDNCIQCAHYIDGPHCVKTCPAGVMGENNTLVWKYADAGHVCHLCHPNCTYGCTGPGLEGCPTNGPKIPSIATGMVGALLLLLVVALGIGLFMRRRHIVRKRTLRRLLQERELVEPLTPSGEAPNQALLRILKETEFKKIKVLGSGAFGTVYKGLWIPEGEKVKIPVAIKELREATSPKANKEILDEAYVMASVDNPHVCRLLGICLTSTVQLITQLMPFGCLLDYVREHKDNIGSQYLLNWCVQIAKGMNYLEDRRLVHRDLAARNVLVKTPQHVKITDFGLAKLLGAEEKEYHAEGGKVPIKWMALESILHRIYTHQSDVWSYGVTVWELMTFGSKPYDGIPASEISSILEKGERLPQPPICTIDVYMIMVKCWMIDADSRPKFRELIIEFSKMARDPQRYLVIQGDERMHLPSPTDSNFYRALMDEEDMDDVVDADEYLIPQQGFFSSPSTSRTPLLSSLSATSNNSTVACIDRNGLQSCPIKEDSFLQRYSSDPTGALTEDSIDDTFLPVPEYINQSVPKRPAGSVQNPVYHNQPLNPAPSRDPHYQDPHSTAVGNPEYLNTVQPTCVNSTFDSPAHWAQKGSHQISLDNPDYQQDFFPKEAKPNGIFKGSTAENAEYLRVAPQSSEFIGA

A further data set relates to A431 cells. Put plainly: Proliferation assay on the squamous carcinoma cell line A431 cells (C5). To be noted: Homo sapiens, A-431; 72 hours with compounds; MTT cell viability assay; read-out: A431 cell (C5): pIC50 (converted). Format: cell-based. As to the method: The squamous carcinoma cell line (A431) was used in a cell proliferation assay, to assess the inhibitory effect of the compounds in whole cells.
In a first step the A431 cells were incubated for 24 hours in the presence of 10% FCS serum. In the second step the cells were incubated for 72 hours with the compounds to be tested at a final concentration of 100 ng/ml. The effect of the compounds on the cell proliferation was finally assessed in a standard MTT cell viability assay.

In the case of `COc1cc2ncnc3c2cc1OCCCCCOc1ccc(Cl)cc1N3` [Compound 4, 4,6-ethanediylidene-8H,18H-pyrimido[4,5-b][6,12,1]benzo-dioxaazacyclotetradecine, 16-chloro-9,10,11,12-tetrahydro-19-methoxy-], the melting point fell in the range of 213.5 to 221.2 °C. Besides, at EGFR [1], the IC50 was 32.6 nM. Further, the IC50 at EGFR [2] is 50.1 nM. Moreover, in the data set with SKOV3 cells, the IC50 is 2880 nM. At EGFR [3], this molecule displayed an IC50 of 556 nM.
The like results for `COc1cc2ncnc3c2cc1OCCCCCCOc1ccccc1N3` [Compound 5, 4,6-ethanediylidene-19H-pyrimido[4,5-b][6,13,1]benzodioxaazacyclo-pentadecine, 8,9,10,11,12,13-hexahydro-20-methoxy-] were, in that order, 243.3 to 251.2 °C, 81.1 nM, 398 nM, 4790 nM and greater than 1000 nM.
Molecule `COc1cc2ncnc3c2cc1OCCCCCCOc1ccc(Br)cc1N3` [Compound 6, 4,6-ethanediylidene-19H-pyrimido[4,5-b][6,13,1]benzodioxaazacyclo-pentadecine, 17-bromo-8,9,10,11,12,13-hexahydro-20-methoxy-] gave a melting point of 228.6 to 234.8 °C. Further, the IC50 at EGFR [1] worked out at 4.4 nM. Also, the IC50 at EGFR [2] was 25.1 nM. The IC50 in the data set on SKOV3 cells is 1820 nM. On EGFR [3], this molecule yielded an IC50 of 359 nM.
`COc1cc2ncnc3c2cc1OCCCCCCCCCOc1ccc(Cl)cc1N3` [Compound 9, 4,6-ethanediylidene-8H,22H-pyrimido[4,5-b][6,16,1]benzo-dioxaazacyclooctadecine, 20-chloro-9,10,11,12,13,14,15,16-octahydro-23-methoxy-] showed a melting point of 177.4 to 183.8 °C. Further, the IC50 at EGFR [1] was determined as 6.79 nM. Besides, the IC50 on EGFR [2] was 39.8 nM. On EGFR [3], the IC50 was greater than 1000 nM.
On to `COC(=O)c1ccc2c(c1)Nc1ncnc3cc(OC)c(cc13)OCCCCCCO2` [Compound 10, 4,6-ethanediylidene-19H-pyrimido[4,5-b][6,13,1]benzodioxaazacyclo-pentadecine-17-carboxylic acid, 8,9,10,11,12,13-hexahydro-20-methoxy-, methyl ester], for which the IC50 was 50.1 nM at EGFR [2], greater than 3160 nM with A431 cells, greater than 10000 nM in the data set on SKOV3 cells and greater than 1000 nM against EGFR [3].
The like results for `COc1cc2ncnc3c2cc1OCCCCCCOc1ccc(C(=O)O)cc1N3` [Compound 11, 4,6-ethanediylidene-19H-pyrimido[4,5-b][6,13,1]benzodioxaazacyclo-pentadecine-17-carboxylic acid, 8,9,10,11,12,13-hexahydro-20-methoxy-] were, in that order, greater than 10000 nM, greater than 3160 nM, greater than 10000 nM and greater than 1000 nM.
`COc1cc2ncnc3c2cc1OCCCCCCOc1ccc(C(=O)N2CCCC2)cc1N3` [Compound 12, pyrrolidine, 1-[(8,9,10,11,12,13-hexahydro-20-methoxy-4,6-ethane-diylidene-19H-pyrimido[4,5-b][6,13,1]benzodioxaazacyclopentadecin-17-yl)carbonyl]-]: the IC50 is greater than 10000 nM at EGFR [2], greater than 3160 nM with A431 cells, greater than 10000 nM in the data set on SKOV3 cells and greater than 1000 nM on EGFR [3].
Regarding `COc1cc2ncnc3c2cc1OCCCCCCOc1ccc(C#N)cc1N3` [Compound 13, 4,6-ethanediylidene-19H-pyrimido[4,5-b][6,13,1]benzodioxaazacyclo-pentadecine-17-carbonitrile, 8,9,10,11,12,13-hexahydro-20-methoxy-], the IC50 at EGFR [2] is 316 nM; with A431 cells, greater than 3160 nM; in the data set with SKOV3 cells, greater than 10000 nM; against EGFR [3], greater than 1000 nM.
The like results for `COc1cc2ncnc3c2cc1OCCCCCCOc1ccc(C(=O)N2CCOCC2)cc1N3` [Compound 14, morpholine, 4-[(8,9,10,11,12,13-hexahydro-20-methoxy-4,6-ethane-diylidene-19H-pyrimido[4,5-b][6,13,1]benzodioxaazacyclopentadecin-17-yl)carbonyl]-] were, in that order, greater than 10000 nM, greater than 3160 nM, greater than 10000 nM and greater than 1000 nM.
For `Oc1cc2ncnc3c2cc1OCCCCCCOc1ccc(Br)cc1N3` [Compound 16, 4,6-ethanediylidene-19H-pyrimido[4,5-b][6,13,1]benzodioxaazacyclo-pentadecin-20-ol, 17-bromo-8,9,10,11,12,13-hexahydro-], the IC50 on EGFR [2] is 2510 nM; against EGFR [3], greater than 1000 nM.
`Brc1ccc2c(c1)Nc1ncnc3cc(OCCCN4CCOCC4)c(cc13)OCCCCCCO2` [Compound 17, 4,6-ethanediylidene-19H-pyrimido[4,5-b][6,13,1]benzodioxaazacyclo-pentadecine, 17-bromo-8,9,10,11,12,13-hexahydro-20-[3-(4-morpholinyl)propoxy]-acetic acid]: the IC50 at EGFR [2] was 39.8 nM; in the data set on A431 cells, 2510 nM; with SKOV3 cells it was 8320 nM; at EGFR [3], 269 nM.
As for `Brc1ccc2c(c1)Nc1ncnc3ccc(cc13)OCCCCCCO2` [Compound 18, 4,6-ethanediylidene-19H-pyrimido[4,5-b][6,13,1]benzodioxaazacyclo-pentadecine, 17-bromo-8,9,10,11,12,13-hexahydro-], the IC50 at EGFR [2] is 79.4 nM; in the data set with SKOV3 cells, greater than 10000 nM; at EGFR [3] it was greater than 1000 nM.
Turning to `COc1cc2ncnc3c2cc1OCCCCCCCc1ccc(Br)cc1N3` [Compound 21, 4,6-ethanediylidenepyrimido[4,5-b][6,1]benzoxaazacyclopentadecine, 17-bromo-8,9,10,11,12,13,14,19-octahydro-20-methoxy-], the IC50 is 10 nM on EGFR [2], greater than 3160 nM in the data set on A431 cells, 813 nM with SKOV3 cells and 158 nM against EGFR [3].
The like results for `COc1cc2ncnc3c2cc1OCCCCCN(C)Cc1ccc(Br)cc1N3` [Compound 22, 4,6-ethanediylidenepyrimido[4,5-b][6,1,12]benzoxadiazacyclo-pentadecine, 17-bromo-8,9,10,11,12,13,14,19-octahydro-20-methoxy-13-methyl-] were, in that order, 15.8 nM, 1580 nM, 257 nM and 38.4 nM.
